Test results published in article PMC7824787, “Design, Synthesis and In Vitro Investigation of Novel Basic Celastrol Carboxamides as Bio-Inspired Leishmanicidal Agents Endowed with Inhibitory Activity against Leishmania Hsp90” (Biomolecules, 2021).
Where two headings read alike, the source gives them in different places.

Legend:
L. tropica promastigotes = test: Antileishmanial activity on L. tropica promastigotes (MTT); type: cell-based
Method: Promastigote stage of L. infantum (MHOM/TN/80/IPT1, kindly provided by Dr. M. Gramiccia and Dr. T. Di Muccio, ISS, Roma) and L. tropica (MHOM/SY/2012/ISS3130) were cultured in RPMI 1640 medium (EuroClone) supplemented with 15% heat-inactivated fetal calf serum (EuroClone, Milan, Italy), 20 mM HEPES, and 2 mM L-glutamine at 23 °C. The MTT (3-[4.5-dimethylthiazol-2-yl]-2.5-diphenyltetrazolium bromide) method was used to estimate the 50% inhibitory concentration (IC50), with some modifications. Compounds were dissolved in DMSO and then diluted with medium to achieve the required concentrations. Test compounds were placed in 96 wells round bottom microplates and seven serial dilutions made. Amphotericin B was used as the reference antileishmanial drug. Parasites were diluted in complete medium to 5 × 10^6 parasites/mL and 100 μL of the suspension was seeded into the plates and incubated at 23 °C for 72 h. Then 20 μL of MTT solution (5 mg/mL) was added into each well, after 3 h the plates were centrifuged, the supernatants discarded and the resulting pellets dissolved in 100 μL of lysing buffer consisting of 20% (w/v) of a solution of SDS (Sigma), 40% of N,N-dimethylformamide (Merck) in H2O. The absorbance of the obtained solutions was measured at a wavelength of 550 nm with a reference at 650 nm with a microplate spectrophotometer (Synergy 4-Biotek, Milan, Italy) and analyzed with the Gen5® software for data processing.
The results are expressed as IC50, the dose of compound that is necessary to inhibit cell growth by 50%; each IC50 value is the mean ± standard deviation of at least three separate experiments performed in duplicate.

LbHsp90 = LbHsp90 (Leishmania braziliensis, UniProt A4HL70); test: In vitro inhibition of the ATPase activity of LbHsp90 (Malachite Green Phosphate Assay); type: biochemical; conditions: 7 μM LbHsp90, 27 °C, 60 min
Description: To evaluate in vitro the modulatory activity of CE, PR and CE caboxamides, a full-length recombinant Hsp90 from L. braziliensis (LbHsp90) was produced in E. coli BL21 DE3 harboring the pET28a_LbHsp90 coding for the C-terminal His-tagged target chaperone (genbank number: XP_001567804.1, full sequence is reported in Appendix B). Pratically, the plasmid pET28a_LbHsp90, kindly donated by professor J.C. Borges, was transformed in E. coli BL21 DE3 using the TransformAid Bacterial Transformation Kit (Thermo Fisher, Waltham, MA, USA). Subsequently, the obtained transformants were grown overnight in LB medium containing 30 μg mL^−1 kanamycin (LBkan30) and then inoculated in 1 L SB kan30 medium (Yeast extract 30 g L^−1, Tryptone 20 g L^−1, NaCl 10 g L^−1) at 37 °C and 220 rpm. When the OD600 reached 0.5–1, gene expression was induced by the addition of 2 mL of 1 M IPTG solution in water and the culture was shifted at 30 °C for 24 h. After cell harvesting by centrifugation (5000 rpm for 30 min), the cell pellet was resuspended in 20 mL of wash buffer (20 mM HEPES buffer, pH 7.0, 500 mM NaCl, 20 mM imidazole) and recombinant E. coli BL21DE3 cells were disrupted by ultrasonication. LbHsp90 was subsequently purified using a Nickel Sepharose 6 Fast Flow agarose resin (Ni-NTA) (GE Healthcare, Milan, Italy) as follows. Soluble protein fraction was separated from cell debris by centrifugation (10,000 rpm for 30min) after cell ultrasonication, and clear lysates were incubated with the Ni-NTA resin for 90 min at 4 °C under mild shaking and loaded onto a glass column (10 × 110 mm). The resin was then washed with 10mL of wash buffer and His-tagged LbHsp90 was eluted using a 3 step gradient (10 mL washing buffer containing 100, 200, and 300 mM imidazole, respectively) and dialyzed against 20 mM HEPES buffer (20 mM, pH 7.5), at 4 °C overnight. The protein content was measured using the Bio-Rad Protein Assay (Hercules, CA, USA) according to the Bradford method and the protein purity was verified by SDS-PAGE analysis (10% T, 2.6% C). It is worth noting that to avoid interferences with the assays described below, proteins were purified and conserved in HEPES buffer (20 mM, pH 7.5) in place of the standard PB-buffer. Reported data are the mean of two experiments run in duplicate.
Modulatory activity toward the ATPase cycle of LbHsp90 was determined using a Malachite Green Phosphate Assay Kit (Catalog Number MAK307, Sigma-Aldrich®, St. Louis, MO, USA). Analyses were run in a 96-well plate directly following the quantitative formation of a green complex between Malachite Green, molybdate, and free orthophosphate (Pi) produced by ATP hydrolysis catalyzed by the chaperone. Color formation from the reaction was measured on a plate reader at 620 nm. Briefly, the IC50 of CE and its derivatives were extrapolated from a set of dose-response curves obtained by calculating the amount of Pi produced by LbHsp90 in the presence of different compounds concentrations.
Reactions were run in HEPES buffer (20 mM, pH 7.5) containing 3 mM MgCl2 and 50 mM KCl in the presence of different compounds concentrations ([…]), LbHsp90 (7 μM) and ATP (25 mM) at 27 °C for 60 min. OD620 was measured 30 min after Malachite Green reactants addition.
LbHsp90 native activity was measured by conducting the reaction in the presence of just LbHsp90 and ATP and extrapolating the concentration of Pi obtained.
Three sets of control experiments, (1) ATP background hydrolysis, (2) compounds-related interferences and (3) protein-related background coloration, were run as follow: • (1) ATP (25 mM) incubated at 27 °C for 60 min • (2) Compounds (different concentrations) incubated with ATP (25 mM) at 27 °C for 60 min • (3) LbHsp90 (7 μM) at 27 °C for 60 min
The in vitro performances of CE, PR and the carboxamides 1–11 (Figure 4) as potential inhibitors of the Leishmania braziliensis Hsp90 were investigated using Sigma-Aldrich® Malachite Green Phosphate Assay Kit. […]

[1] = Leishmania tropica, 72 h, 23 °C, MTT, read-out: Leishmania Promastigotes IC50, L. tropica
[2] = 72 h, 23 °C, MTT; read-out: Leishmania Promastigotes IC50, L. tropica

LbHsp90, sequence (A4HL70 entry or part of it): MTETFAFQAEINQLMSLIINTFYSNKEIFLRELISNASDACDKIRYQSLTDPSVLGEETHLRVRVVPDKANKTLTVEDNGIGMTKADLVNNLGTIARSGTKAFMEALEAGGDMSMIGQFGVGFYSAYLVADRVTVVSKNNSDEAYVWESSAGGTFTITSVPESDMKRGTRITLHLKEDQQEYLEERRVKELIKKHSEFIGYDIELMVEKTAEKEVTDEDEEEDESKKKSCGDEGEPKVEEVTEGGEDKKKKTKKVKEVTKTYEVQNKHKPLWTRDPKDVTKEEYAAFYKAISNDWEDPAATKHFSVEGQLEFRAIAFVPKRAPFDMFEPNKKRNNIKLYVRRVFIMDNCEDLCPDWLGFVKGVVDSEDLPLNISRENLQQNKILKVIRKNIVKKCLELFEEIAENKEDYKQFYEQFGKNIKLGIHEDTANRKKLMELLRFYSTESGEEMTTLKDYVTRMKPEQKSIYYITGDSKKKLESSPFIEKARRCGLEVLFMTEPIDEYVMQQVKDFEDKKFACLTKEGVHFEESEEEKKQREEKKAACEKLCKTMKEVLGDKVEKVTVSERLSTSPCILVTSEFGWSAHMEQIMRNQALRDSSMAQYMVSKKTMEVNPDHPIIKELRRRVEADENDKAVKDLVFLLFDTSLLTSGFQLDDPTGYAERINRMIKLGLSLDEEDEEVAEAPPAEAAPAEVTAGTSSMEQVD

SMILES | IC50 (L. tropica promastigotes; Leishmania tropica; 72 h, 23 °C, MTT; read-out: Leishmania Promastigotes IC50, L. tropica) [µM] | IC50 (LbHsp90) [µM] | IC50 (L. tropica promastigotes; [1]) [µM] | IC50 (L. tropica promastigotes; [2]) [µM]
CC1=C(O)C(=O)C=C2C1=CC=C1[C@@]2(C)CC[C@@]2(C)[C@@H]3C[C@](C)(C(=O)O)CC[C@]3(C)CC[C@]12C [CE, celastrol] | 0.49 ± 0.17 | 201 ± 10 |  | 
CC1=C(O)C(=O)C=C2C1=CC=C1[C@@]2(C)CC[C@@]2(C)[C@@H]3C[C@](C)(C(=O)NCCN4CCCCC4)CC[C@]3(C)CC[C@]12C [compound 1, (2R,4aS,6aS,12bR,14aS,14bR)-10-hydroxy-2,4a,6a,9,12b,14a-hexamethyl-11-oxo-N-(2-(piperidin-1-yl)ethyl)-1,2,3,4,4a,5,6,6a,11,12b,13,14,14a,14b-tetradecahydropicene-2-carboxamide] |  | 83 ± 2 | 0.09 ± 0.03 | 
CC1=C(O)C(=O)C=C2C1=CC=C1[C@@]2(C)CC[C@@]2(C)[C@@H]3C[C@](C)(C(=O)NCCN4CCCC4)CC[C@]3(C)CC[C@]12C [compound 3, (2R,4aS,6aS,12bR,14aS,14bR)-10-hydroxy-2,4a,6a,9,12b,14a-hexamethyl-11-oxo-N-(2-(pyrrolidin-1-yl)ethyl)-1,2,3,4,4a,5,6,6a,11,12b,13,14,14a,14b-tetradecahydropicene-2-carboxamide] |  | 81 ± 1 | < 0.1 | 0.08 ± 0.04
CC1=C(O)C(=O)C=C2C1=CC=C1[C@@]2(C)CC[C@@]2(C)[C@@H]3C[C@](C)(C(=O)NCC45CCCN4CCC5)CC[C@]3(C)CC[C@]12C [compound 5, (2R,4aS,6aS,12bR,14aS,14bR)-N-((hexahydro-1H-pyrrolizin-7a-yl)methyl)-10-hydroxy-2,4a,6a,9,12b,14a-hexamethyl-11-oxo-1,2,3,4,4a,5,6,6a,11,12b,13,14,14a,14b-tetradecahydropicene-2-carboxamide] |  | 20 ± 2 | 0.12 ± 0.05 | 
CC1=C(O)C(=O)C=C2C1=CC=C1[C@@]2(C)CC[C@@]2(C)[C@@H]3C[C@](C)(C(=O)NCCNc4ccnc5cc(Cl)ccc45)CC[C@]3(C)CC[C@]12C [compound 6, (2R,4aS,6aS,12bR,14aS,14bR)-N-(2-((7-chloroquinolin-4-yl)amino)ethyl)-10-hydroxy-2,4a,6a,9,12b,14a-hexamethyl-11-oxo-1,2,3,4,4a,5,6,6a,11,12b,13,14,14a,14b-tetradecahydropicene-2-carboxamide] |  | 65 ± 4 | 0.14 ± 0.03 | 
CC1=C(O)C(=O)C=C2C1=CC=C1[C@@]2(C)CC[C@@]2(C)[C@@H]3C[C@](C)(C(=O)NCCSS(C)(=O)=O)CC[C@]3(C)CC[C@]12C [compound 9, S-(2-((2R,4aS,6aS,12bR,14aS,14bR)-10-hydroxy-2,4a,6a,9,12b,14a-hexamethyl-11-oxo-1,2,3,4,4a,5,6,6a,11,12b,13,14,14a,14b-tetradecahydropicene-2-carboxamido)ethyl) methanesulfonothioate] |  | > 150 | 2 to 4 | 3.07 ± 1.36
